From ChEMBL document CHEMBL4732201, “Synthesis and preliminary anticancer evaluation of new triazole bisphosphonate-based isoprenoid biosynthesis inhibitors” (Eur J Med Chem, 2021)

Experiments:
[1] = biological target: T1, Geranylgeranyl pyrophosphate synthase (Homo sapiens, UniProt O95749); test: Inhibition of recombinant human N- terminal His-tagged GGPPS (1 to 300 residues) expressed in Escherichia coli
T1 sequence (O95749 whole entry): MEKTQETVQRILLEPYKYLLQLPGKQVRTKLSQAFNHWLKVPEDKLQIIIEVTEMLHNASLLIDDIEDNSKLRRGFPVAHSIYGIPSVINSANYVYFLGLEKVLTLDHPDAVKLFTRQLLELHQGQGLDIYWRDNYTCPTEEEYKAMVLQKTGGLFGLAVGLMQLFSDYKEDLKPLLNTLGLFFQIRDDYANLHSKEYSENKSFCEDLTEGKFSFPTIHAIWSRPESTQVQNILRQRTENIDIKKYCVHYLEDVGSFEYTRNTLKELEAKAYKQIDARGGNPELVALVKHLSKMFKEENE

[2] = biological target: T2, Farnesyl pyrophosphate synthase (Homo sapiens, UniProt P14324); test: Inhibition of FPPS (unknown origin)
T2 sequence (P14324 whole entry): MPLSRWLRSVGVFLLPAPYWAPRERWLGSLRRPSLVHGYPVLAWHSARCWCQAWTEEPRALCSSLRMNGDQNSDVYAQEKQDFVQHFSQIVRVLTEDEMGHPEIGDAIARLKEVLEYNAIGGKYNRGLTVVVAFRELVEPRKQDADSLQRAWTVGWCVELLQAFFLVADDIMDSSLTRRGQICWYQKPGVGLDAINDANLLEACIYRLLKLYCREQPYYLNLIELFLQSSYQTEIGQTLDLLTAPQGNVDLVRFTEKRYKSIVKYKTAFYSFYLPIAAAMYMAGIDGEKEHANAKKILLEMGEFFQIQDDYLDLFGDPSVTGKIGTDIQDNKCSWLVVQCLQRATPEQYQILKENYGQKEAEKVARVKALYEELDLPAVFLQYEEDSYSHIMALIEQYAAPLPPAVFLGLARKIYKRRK

[3] = tested on: RPMI-8226; test: Antiproliferative activity against human RPMI-8226 cells; type: functional, cell-based
[4] = biological target: T3, Geranylgeranyl pyrophosphate synthase (Homo sapiens) (UniProt O95749); test: Inhibition of GGPPS in human A549 cells assessed as reduction in cell growth at 100 uM incubated for 72 hrs by MTT assay relative to control; type: cell-based
T3 sequence (whole entry): T1 sequence (O95749 whole entry)

[5] = biological target: T3, Geranylgeranyl pyrophosphate synthase (Homo sapiens); test: Inhibition of GGPPS in human MIA PaCa-2 cells assessed as reduction in cell growth at 100 uM incubated for 72 hrs by MTT assay relative to control; type: cell-based
[6] = biological target: T3, Geranylgeranyl pyrophosphate synthase (Homo sapiens); test: Inhibition of GGPPS in human MDA-MB-231 cells assessed as reduction in cell growth at 100 uM incubated for 72 hrs by MTT assay relative to control; type: cell-based

Row | SMILES | IC50 [1] [nM] | IC50 [2] [nM] | further results
1 | CC(C)=CCC/C(C)=C\CCc1cn(CC(O)(P(=O)(O)O)P(=O)(O)O)nn1 | 75 | 33300 | –
2 | CC(C)=CCCC(C)=CCCc1cn(CC(O)(P(=O)(O)O)P(=O)(O)O)nn1 | – | – | EC50 [3]: 190 nM
3 | CC(C)=CCC/C(C)=C/CCc1cn(CC(O)(P(=O)(O)O)P(=O)(O)O)nn1 | 173 | 49600 | –
4 | CCCCc1cn(CCCC(O)(P(=O)(O)O)P(=O)(O)O)nn1 | – | – | growth inhibition (GI) [4]: < 30%; growth inhibition (GI) [5]: < 30%; growth inhibition (GI) [6]: < 30%
